Entries after “also recorded” stand apart in the source; their conditions may differ.
Assays:
Assay type in all cases: cell-based, mouse
WT CD4+ T cells = test: T-cell activation marker expression by flow cytometry after IL-2 and CD3/CD28 stimulation
Description: (§1) Spleens from WT or Yap-cKO mice were pushed through a 70 μm mesh (Falcon) using an insulin syringe plunger and washed with PBS. Cells were treated with ACK red blood cell lysis buffer, and splenocyte single-cell suspensions were prepared for magnetic separation or stained for sorting by flow cytometry. CD4^+ or CD8^+ T-cell enrichment was performed using magnetic beads (Miltenyi Biotec or STEMCELL Technologies). Naïve CD4^+ T cells were isolated using a naïve CD4^+ T-cell isolation kit (Miltenyi Biotec).
(§2) Isolated splenocytes or tumor digests were washed with PBS and stained with the LIVE/DEAD fixable near-IR dead cell stain kit (Invitrogen). Cells were then washed with stain buffer (BD), resuspended in stain buffer containing Fc block (BD), and incubated for 5 minutes at 4° C. Surface antibodies were added in predetermined concentrations, and cells were incubated for 30 minutes at 4° C. or 15 minutes at room temperature, before being washed with BD stain buffer and resuspended in PBS for flow cytometric analysis. For intracellular cytokine staining, cells were fixed and permeabilized using the BD Cytofix/Cytoperm Fixation/Permeabilization kit (BD) after dead cell dye and surface staining. For transcription factor staining, the eBioscience Foxp3/transcription factor staining buffer set was used. Flow cytometry analyses were performed on BD LSRII at Boston University School of Medicine Flow Cytometry Facility or at the University of Maryland School of Medicine Center for Innovative Biomedical Resources, Flow Cytometry Shared Service and analyzed by Flowlo (TreeStar).
(§3) Cells were cultured and stimulated in 96-well plates at 1×10^5 cells per well. Plates were coated with anti-CD3 antibody (Biolegend) at concentrations of 0, 0.125, 0.25, 0.5, and 1 μg/ml at 4° C. overnight and were washed twice with PBS before incubation. Cells were stimulated in the anti-CD3-coated plates with soluble anti-CD28 at 2 μg/ml (Biolegend). On days 1 and 3, cells were stained with dead cell dye as well as antibodies recognizing the lineage and activation markers CD3 BUV737 (BD), CD4 BUV395 (BD), CD8 PerCP-Cy5.5 (Biolegend), CD69 PE (Biolegend), CD44 BV650 (Biolegend), and CD25 APC (Biolegend). For proliferation assays, CD4^+ or CD8^+ T cells were isolated and stained using the CellTrace Violet or CFSE Cell Proliferation Kit (Life Technologies). Briefly, purified cells were washed with PBS and incubated with CellTrace dye for 20 minutes at 37° C. protected from light. After 20 minutes, complete RMPI medium was added to the cell suspension, and the cells were incubated 5 minutes further before being washed and resuspended in complete RPMI medium. […] On days 1 and 3, cells were stained with dead cell dye, and proliferation was measured at the same time.

WT CD8+ T cells = test: as above
Description: as §1, §2, §3

WT CD4+ and CD8+ T cells = test: T-cell proliferation assay (CellTrace Violet or CFSE); conditions: DMSO- versus verteporfin-treated, 3 days post stimulation with IL-2, anti-CD3 and anti-CD28 (FIG. 6K)
Description: Cells were cultured and stimulated in 96-well plates at 1×10^5 cells per well. Plates were coated with anti-CD3 antibody (Biolegend) at concentrations of 0, 0.125, 0.25, 0.5, and 1 μg/ml at 4° C. overnight and were washed twice with PBS before incubation. Cells were stimulated in the anti-CD3-coated plates with soluble anti-CD28 at 2 μg/ml (Biolegend). On days 1 and 3, cells were stained with dead cell dye as well as antibodies recognizing the lineage and activation markers CD3 BUV737 (BD), CD4 BUV395 (BD), CD8 PerCP-Cy5.5 (Biolegend), CD69 PE (Biolegend), CD44 BV650 (Biolegend), and CD25 APC (Biolegend). For proliferation assays, CD4^+ or CD8^+ T cells were isolated and stained using the CellTrace Violet or CFSE Cell Proliferation Kit (Life Technologies). Briefly, purified cells were washed with PBS and incubated with CellTrace dye for 20 minutes at 37° C. protected from light. After 20 minutes, complete RMPI medium was added to the cell suspension, and the cells were incubated 5 minutes further before being washed and resuspended in complete RPMI medium. Cells were cultured in 96-well plates at 1×10^5 cells per well and were stimulated using anti-CD3/CD28 dynabeads (Gibco) at a 1:1 ratio with T cells. On days 1 and 3, cells were stained with dead cell dye, and proliferation was measured at the same time.

Verteporfin
CD69 expression on WT CD4+ T cells (WT CD4+ T cells; 72 hours (3 days) post IL-2 and CD3/CD28 stimulation, increasing concentration of verteporfin (FIG. 6I, FIG. 11E)): increased levels of early activation markers | CD71 expression on WT CD4+ T cells (WT CD4+ T cells; 72 hours post IL-2 and CD3/CD28 stimulation, increasing concentration of verteporfin (FIG. 1I)): increased levels of early activation markers CD71 | CD69 expression on WT CD8+ T cells (WT CD8+ T cells; 72 hours (3 days) post IL-2 and CD3/CD28 stimulation, increasing concentration of verteporfin (FIG. 6J, FIG. 11F)): increased levels of early activation markers | CD71 expression on WT CD8+ T cells (WT CD8+ T cells; 72 hours post IL-2 and CD3/CD28 stimulation, increasing concentration of verteporfin (FIG. 1J)): increased levels of early activation markers CD71 | Proliferation of T cells isolated from WT mice (WT CD4+ and CD8+ T cells): did not significantly affect proliferation; also recorded: neither Yap deletion nor verteporfin treatment significantly impacted T-cell proliferation

From patent US20200323905A1, “METHODS AND COMPOSITIONS FOR MODULATING THE IMMUNE SYSTEM” (Trustees of Boston University, priority 2019, published 2020)
